The numbers were not newly measured in patent US9409783B2, “Method for manufacturing mesoporous materials, materials so produced and use of mesoporous materials” (Nanologica AB, priority 2008, dated 2016), which cites them from elsewhere.

The conditions of this data set: L-glutamate group of folic acid; deprotonated and negatively charged above this pH.

Consider `Nc1nc2ncc(CNc3ccc(C(=O)N[C@@H](CCC(=O)O)C(=O)O)cc3)nc2c(=O)[nH]1` [folic acid], for which the pKa value is reported as 8.3.
